# In patent publication US20220096449A1, “METHOD OF TREATMENT WITH TRADIPITANT” (Vanda Pharmaceuticals Inc., priority 2018, published 2022):
# Several values for one entry are separate records, joined by “and”; a condition that tells them apart may be missing. Equal entries are not always repeated.
# What was measured:
# [1] = target: T1, NK-2 receptor (Homo sapiens, UniProt P21452); experiment: NK-2 receptor inhibition; assay type: binding
# T1 sequence (P21452 1-398): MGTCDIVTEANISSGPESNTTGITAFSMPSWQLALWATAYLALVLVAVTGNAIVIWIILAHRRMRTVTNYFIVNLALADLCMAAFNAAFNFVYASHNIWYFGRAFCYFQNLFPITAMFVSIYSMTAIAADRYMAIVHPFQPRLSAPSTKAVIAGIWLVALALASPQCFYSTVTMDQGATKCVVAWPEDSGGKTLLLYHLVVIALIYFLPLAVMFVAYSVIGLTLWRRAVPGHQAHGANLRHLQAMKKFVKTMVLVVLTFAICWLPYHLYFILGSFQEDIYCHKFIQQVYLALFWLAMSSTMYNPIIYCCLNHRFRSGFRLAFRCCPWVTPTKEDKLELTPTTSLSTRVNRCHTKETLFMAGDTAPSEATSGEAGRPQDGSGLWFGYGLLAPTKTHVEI
# [2] = target: T2, NK-1 receptor (Cavia porcellus, UniProt P30547); experiment: GR73632-induced vocalization in guinea pigs; assay type: in vivo, guinea pig
# T2 construct: from tissue; host or cells: living guinea pigs (central NK-1 receptors)
# Protocol: Male Dunkin/Hartley guinea pigs (200 to 250 grams) are orally administered either vehicle or an NK-1 antagonist. Approximately 45 minutes later (for dose response studies), the animals are anesthetized and 0.1 nmol of GR73632 (SP analog) in a vehicle volume of 5 μl is injected into the cerebral ventricle at the intersection of bregma and the midline of the skull. Animals are placed in a dark testing chamber located inside of a sound attenuation cubicle and vocalizations are recorded for 30 minutes following recovery from anesthesia. The time spent vocalizing is quantified for each animal. In the duration of action study, 0.1 mg/kg of tradipitant or vehicle solution is administered orally and then 2, 4, or 7 hours later, 0.1 nmol of GR73632 is administered into the cerebral ventricle as described above. Vocalizations are recorded and quantified as indicated above. Vehicle solutions are either CMC (FIG. 4 data) or an ethanol/emulphor solution (FIGS. 5 and 6). Data is analyzed using one-tailed t-tests.
# [3] = Plasma concentration of tradipitant 2 hours post-dose in dogs; assay type: in vivo, beagle dog; conditions: individual dogs
# Protocol: All animals are dosed over a period of five (5) weeks, with each dog receiving one of five different treatments on each day of dosing. […] In cases where apomorphine is administered alone, without prior treatment with tradipitant or aprepitant, apomorphine is given at approximately the same time as when given in combination with tradipitant or aprepitant.
# [4] = system: brain NK-1 receptors; experiment: Brain NK-1 receptor occupancy with tracer GR205171; assay type: in vivo; conditions: p.o., tracer GR205171 iv
# Protocol: A tracer NK-1 antagonist compound (GR205171) is used to evaluate the ability of other NK-1 antagonists to occupy the brain NK-1 receptors. In these studies, the test compounds are administered orally and the tracer compound is administered intravenously afterward. The occupancy of the NK-1 receptors is evaluated by quantitating the amount of the tracer compound bound to the brain NK-1 receptors after increasing doses of the test compounds.
# [5] = target: NK-1 receptor (Meriones unguiculatus, UniProt Q5DUB1); experiment: NK-1 agonist (GR73632)-induced foot-tapping behavior in gerbils; assay type: in vivo; set-up: from tissue; host or cells: living gerbils (central NK-1 receptors); conditions: gerbil
# Protocol: Male Mongolian gerbils (Harlan Sprague Dawley, Indianapolis, Ind.) weighing 26 to 40 grams are administered the selective neurokinin-1 receptor agonist GR73632 ([…]) via direct, vertical, free-hand intracerebroventricular (icv) injection to a depth of 4.5 mm below bregma with a cuffed 27-gauge needle attached to a 50 μl Hamilton syringe Immediately after injection, animals are placed individually into isolated chambers with pressure-sensitive velocimeter platform floors (San Diego Instruments acoustic startle apparatus) that detect and quantify vibration. The San Diego Instruments “SR” DOS-based computer program is used on a PC to record the number of foot-taps over the following 6 to 10 minutes, beginning 30 seconds after the floor is lightly tapped. Raw data are converted with a Microsoft® Excel® (Microsoft® and Excel® are registered trademarks of Microsoft Corp., Redmond, Wash.) macro that determines the number of events over threshold (125) in each 250-millisecond time bin over the 5.5 minutes following onset of observation. The total number and average intensity of events over the duration is determined. Total number of taps is analyzed with one-way ANOVA and post-hoc Dunnett's test using JMP statistical software.
# A dose-response curve (with doses of 0.3, 1, 3 and 10 pmols, icv) is initially generated with the NK-1 agonist GR73632.
# NK-1 antagonists are tested for their ability to attenuate GR73632-induced foot tapping. NK-1 antagonists are administered (po) via oral feeding tube at doses and time points specified in each experiment. All animals receive only one dose of NK-1 antagonists in all tests.
# NK-1 antagonists are administered at multiple doses (at least 3; one dose per animal) and response to GR73632 is measured.
# NK-1 receptor antagonists are administered at multiple pre-treatment times (one administration per animal) including at 0.5, 1, 2, 4, 7, 16, and 24 hours prior to GR73632 injection. GR73632 (Peninsula Labs, CA) is dissolved in saline. Tradipitant is dissolved in 1% CMC/0.5% SLS/0.085% PVP vehicle.
# NK-1 receptor (Meriones unguiculatus, UniProt Q5DUB1), sequence (Q5DUB1 whole entry): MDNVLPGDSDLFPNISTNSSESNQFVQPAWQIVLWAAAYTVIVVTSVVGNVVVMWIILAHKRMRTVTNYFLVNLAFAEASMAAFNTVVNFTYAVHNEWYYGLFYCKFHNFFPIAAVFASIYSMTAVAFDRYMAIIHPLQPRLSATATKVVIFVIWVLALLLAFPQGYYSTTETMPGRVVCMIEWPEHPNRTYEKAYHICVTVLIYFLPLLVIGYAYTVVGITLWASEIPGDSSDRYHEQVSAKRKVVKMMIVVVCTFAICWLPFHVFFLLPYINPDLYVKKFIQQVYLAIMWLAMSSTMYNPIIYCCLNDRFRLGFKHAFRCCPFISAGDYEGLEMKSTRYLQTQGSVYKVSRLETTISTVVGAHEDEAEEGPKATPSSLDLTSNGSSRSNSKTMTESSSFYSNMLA
# T2 sequence (P30547 whole entry): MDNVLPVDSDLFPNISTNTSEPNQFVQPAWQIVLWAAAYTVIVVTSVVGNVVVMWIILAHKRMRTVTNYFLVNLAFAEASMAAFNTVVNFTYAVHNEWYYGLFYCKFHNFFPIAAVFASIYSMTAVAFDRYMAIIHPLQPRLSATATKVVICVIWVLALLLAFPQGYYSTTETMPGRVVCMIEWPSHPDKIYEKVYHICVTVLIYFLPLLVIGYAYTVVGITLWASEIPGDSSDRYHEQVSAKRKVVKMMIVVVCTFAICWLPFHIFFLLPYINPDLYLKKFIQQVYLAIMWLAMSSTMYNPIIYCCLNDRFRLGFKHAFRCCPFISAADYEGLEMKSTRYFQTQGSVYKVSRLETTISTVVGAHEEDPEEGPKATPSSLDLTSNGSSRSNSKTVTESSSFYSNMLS
smiles,measurement,setting,value
"O=C(c1ccccc1Cl)c1cccnc1-c1nnn(Cc2cc(C(F)(F)F)cc(C(F)(F)F)c2)c1-c1ccncc1 [Tradipitant, {2-[1-(3,5-bistrifluoromethylbenzyl)-5-pyridin-4-yl-1H-[1,2,3]triazol-4-yl]-pyridin-3-yl}-(2-chlorophenyl)-methanone]",inhibition at NK-2 receptor,[1],no significant inhibition
same,suppression of agonist-induced vocalization,"[2]; 0.1 mg/kg oral, 7 hours after administration",significantly active
same,inhibitory activity on vocalization,[2]; at and below 0.1 mg/kg,retains significant inhibitory activity
same,inhibition of agonist-induced vocalization,"[2]; oral, 10, 1.0, 0.1 and 0.05 mg/kg (each p<0.001)",significant inhibition
same,duration of activity,"[2]; oral, guinea pig",exceeds 7 hours
same,"minimum effective dose (MED), inhibition of vocalization","[2]; oral, guinea pig",0.025 mg/kg
same,Concentration of tradipitant in plasma,[3]; 0.3 mg/kg oral,90.93 ng/mL and 83.38 ng/mL and 22.59 ng/mL and 51.20 ng/mL and 41.33 ng/mL
same,Concentration of tradipitant in plasma,[3]; 1.0 mg/kg oral,240.84 ng/mL and 100.97 ng/mL and 61.56 ng/mL and 175.58 ng/mL and 86.49 ng/mL
same,Concentration of tradipitant in plasma,[3]; 3.0 mg/kg oral,316.20 ng/mL and 682.91 ng/mL and 119.79 ng/mL and 122.73 ng/mL and 256.58 ng/mL
same,"ED50, occupancy of brain NK-1 receptors",[4],0.04 mg/kg
same,time after administration with significant inhibition of foot-tapping,[5]; 0.1 mg/kg po,up to 7 hours
same,effect on foot-tapping by 16 hours after administration,"[5]; 0.1 mg/kg po, 16 hours",significantly diminished
same,inhibition at 1 mg/kg,"[5]; 1 mg/kg, 16 hours after administration",> 50%
same,ED50,"[5]; oral, 2 hours after administration, GR73632 3 pmol icv, read-out: ED50, inhibition of foot-tapping behavior",0.03 ± 0.004 mg/kg
